Laboratory results taken from patent publication US20020040018A1, “Subtype selective melatonergics” (priority 2000, published 2002).
Like-named read-outs stand apart in the source and are kept apart here.

What was measured:
mice = assay: Elevated platform test for phencyclidine-like behavioral effects; type: in vivo; details: 44.5 nmol dose, control
Method: The in vivo phencyclidine-like behavioral effects of CGX-031-120 is assessed by the elevated platform test as described by Evoniuk et al. (1991). The platform test is a rapid method for evaluating the behavioral effects of phencyclidine-like dissociative anesthetics in mice. […] Alternatively, as a control, a 44.5 nmol dose of MK 801 (dizocilpine) elicited 87.5% drug-induced falls from the elevated platform.

rat = details: cited from earlier work
[1] = test system: Frings audiogenic seizure-susceptible mice; assay: Rotorod test of motor performance (toxicity) in Frings mice; details: Table 6, i.p., rotorod
Method: (§1) All compounds were administered i.p. Varying doses of the compounds were tested. […] For this procedure, mice were tested for their ability to maintain balance on a rotating (6 rpm) knurled Plexiglas rod (1 inch diameter) for one minute. Mice unable to maintain balance in three successive trials during the test period were considered toxic. […] For these studies, the dose of each test substance was varied between the limits of 0 and 100% protection and toxicity. The protective index (PI) is TD50/ED50.

[2] = test system: Frings audiogenic seizure susceptible mice; assay: Audiogenic seizure susceptibility of Frings mice; type: in vivo; details: for P.I.: Table 6, TD50/ED50
Method: All compounds were administered i.p. Varying doses of the compounds were tested. At the predetermined time of peak anticonvulsant effect, individual mice were placed into a round Plexiglas chamber (diameter, 15 cm; height, 18 cm) pitted with an audio transducer (Model A5-ZC; FET Research & Development, Salt Lake City, Utah) and exposed to a high intensity sound stimulus (110 decibels, 11 KHz) for 25 seconds. Animals not displaying tonic forelimb or hindlimb extension were considered protected. The effect of the test compounds on motor performance was assessed by the rotorod test (Dunham and Miya, 1957). For this procedure, mice were tested for their ability to maintain balance on a rotating (6 rpm) knurled Plexiglas rod (1 inch diameter) for one minute. Mice unable to maintain balance in three successive trials during the test period were considered toxic. The median effective dose (ED50) and the median toxic dose (TD50) was calculated by probit analysis (Finney, 1971). For these studies, the dose of each test substance was varied between the limits of 0 and 100% protection and toxicity. The protective index (PI) is TD50/ED50.

MT2 receptor subtype = biological target: T1, MT2 receptor subtype (Homo sapiens, UniProt P49286); details: radioligand binding, clones in NIH-3T3 cells; cited from earlier work
T1 construct: host or cells: NIH-3T3 cells
T1 sequence (P49286 1-362): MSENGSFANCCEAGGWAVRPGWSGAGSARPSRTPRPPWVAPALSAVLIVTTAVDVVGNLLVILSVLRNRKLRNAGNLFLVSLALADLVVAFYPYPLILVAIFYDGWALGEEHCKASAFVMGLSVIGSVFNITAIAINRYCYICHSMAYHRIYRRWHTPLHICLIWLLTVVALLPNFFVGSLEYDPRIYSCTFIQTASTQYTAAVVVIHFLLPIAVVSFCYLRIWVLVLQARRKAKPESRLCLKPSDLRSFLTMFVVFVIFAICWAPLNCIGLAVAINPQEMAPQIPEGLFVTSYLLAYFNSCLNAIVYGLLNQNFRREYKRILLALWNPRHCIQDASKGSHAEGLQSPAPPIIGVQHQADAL

in vivo = details: Frings, mouse
Method: as §1

[3] = Sugden's study; cited from earlier work
rodents = details: 25 μg chronically for 13 weeks; cited from earlier work
[4] = test system: children with sleep disturbances; details: single dose of 5-10 mg; cited from earlier work
[5] = Formalin model of persistent pain (Example 11); type: in vivo
Method: In this model, two distinct phases of nociceptive activity (paw licking) are observed. […] The second phase is caused by the release of inflammatory factors from tissue damage caused by formalin injection. This phase lasts for 30 to 40 minutes, and is a model of persistent inflammatory pain. The second phase is also predictive of analgesic drugs that will show efficacy in models of chronic and neurophathic pain. [drawing 2]

[6] = Sugden's study; cited from earlier work; remark: listed apart in the source
[7] = Table 6, i.p., time of peak effect
[8] = Mus musculus, ip, Table 6, i.p., time of peak effect, read-out: ED50

C[C@]12N[C@H](Cc3ccccc31)c1ccccc12 [MK 801, reference compound]
drug-induced falls from the elevated platform (mice): 87.5%

CC(=O)NCCc1c(Cc2ccccc2)[nH]c2ccccc12 [Luzindole]
antagonism of melatonin induced anti-nociception (rat; i.c.v. (Luzindole 50 & 100 μg)): antagonized

O=C1CN=C(c2ccccc2Cl)c2cc([N+](=O)[O-])ccc2N1 [Klonipin ®, reference compound]
TD50 [1]: 0.26 mg/kg | P.I. [2]: 2.6 | ED50 [2, 7]: 0.10 mg/kg

CCCC(=O)NCCc1c2n(c3ccc(OC)cc13)Cc1ccccc1-2 [IIK7, N-butanoyl-2-(2-methoxy-6H-isoindolo-[2,1a]-indol-11-yl)-ethanamine]
selectivity for the MT2 receptor subtype (MT2 receptor subtype): 140 fold

O=C1NC(=O)C(c2ccccc2)(c2ccccc2)N1 [Dilantin ®, reference compound]
TD50 (in vivo; ip): 41 mg/kg | ED50 [2, 8]: 3.9 mg/kg | P.I. [2]: 10.5

COc1ccc2[nH]cc(CCNC(C)=O)c2c1 [Melatonin, N-acetyl-5-methoxytryptamine]
ED50 v ECS [3]: 159 mg/kg | number and severity of seizures induced by PTZ (rodents): reduced the number and severity of seizures | TD50 (in vivo; intraperitoneal): 363 mg/kg | TD50 (in vivo; ip): 342 mg/kg | frequency of epileptic attacks [4]: positive effect | licking time following formalin injection ([5]; both phases, 5 doses): dose-dependently reduced the licking time | dose at which reduction of licking time reaches significance ([5]; phase one): ≥ 100 mg/kg | dose at which reduction of licking time reaches significance ([5]; phase two): ≥ 200 mg/kg | anti-nociceptive effect (rat; ip 30, 60, 120 mg/kg): dose-dependent anti-nociceptive effect | ED50 ([2]; Mus musculus, ip): 82 mg/kg | ED50 ([2]; audiogenic mouse model, read-out: ED50): 83 mg/kg | ED50 v 3-MPA [6]: 115 mg/kg

NC(=O)OCC(COC(N)=O)c1ccccc1 [Felbatol ®, reference compound]
TD50 (in vivo; ip): 220 mg/kg | ED50 [2, 8]: 10 mg/kg | P.I. [2]: 22

NC(=O)N1c2ccccc2C=Cc2ccccc21 [Tegratol ®, reference compound]
TD50 [1]: 45.4 mg/kg | P.I. [2]: 4.1 | ED50 [2, 7]: 11.2 mg/kg

CCCC(CCC)C(=O)O [Depakote ®, reference compound]
ED50 [2, 8]: 155 mg/kg | P.I. [2]: 2.6

CCC1(C)CC(=O)NC1=O (stereo not shown) [Zarontin ®, reference compound]
TD50 (in vivo; ip): 340 mg/kg | P.I. [2]: 1.04
